What was measured:
human CD34+ CB cells = type: cell-based; settings: for gene transfer efficiency to human CD34+ CB cells and CD34+ subsets, variants of Cmpd1: prestimulated 16 hours and transduced 6 hours in presence of compound, FACS after 3 additional days (FIGS. 16A, 16B)
Method: The cells were then exposed for 6 hours to a GFP lentiviral vector (10^6 iu/mL) in the same medium. […] At the end of the culture media, cells were harvested, stained for CD34 and analysed by flow cytometry.
The vector constructs were sequence-verified. […] Virus-containing supernatants were concentrated by ultracentrifugation to achieve titers of 0.5×10^9 to 5×10^9 infectious units/ml. Viral titers were determined by transducing HeLa cells with three dilutions of the lentiviral vector.
Umbilical cord blood (CB) and mobilized peripheral blood (mPB) cells were collected with consent according to procedures approved by the Research Ethics Board of the University of British Columbia. CD34^+ enriched adult bone marrow cells were purchased from […] Technologies. CD34^+ CB and mPB cells were enriched to >90% purity using first RosetteSep™ CD34 preenrichment cocktail ([…] Technologies) followed by positive selection using magnetic beads (EasySep kit, […] Technologies). In some cases additional enrichment was done by sorting CD34^+ cells using an Influx II sorter (BD Bioscience). […] All flow cytometric analysis was performed using a LSRII Fortessa® (BD Biosciences).

human CD34+ cells = test: Expansion of human CD34+ cells (EC50, CD34+CD45RA- cell count); type: cell-based; settings: concentration that results in a 50% increase in CD34+CD45RA- cell count compared to vehicle cultures (DMSO); for EC50: Homo sapiens, read-out: Biological data (EC50)*
[1] = system: macaque umbilical cord blood CD34+ cells; settings: after transplantation of co-cultured macaque cord blood CD34+ cells

SMILES | gene transfer efficiency to human CD34+ CB cells and CD34+ subsets, variants of Cmpd1 (human CD34+ CB cells) | EC50 (human CD34+ cells) [nM] | Biological data (EC50)* (human CD34+ cells) | proportion of primate CD45+ cells in the blood of transplanted mice [1] | enhancement of lentiviral-mediated gene transfer (in words) (human CD34+ CB cells; SR1 0.75 μM, assessed 3 days post-infection on CD34+ cells from cord blood)
COC(=O)c1ccc2c(c1)[nH]c1nc(Cc3ccccc3)nc(N(C)CCCN3CCCCC3)c12 [Cmpd 3] | increase gene transfer efficiency | < 100 | – | – | –
COC(=O)c1ccc2c(c1)[nH]c1nc(Cc3cccc(F)c3)nc(NCCCN3CCCCC3)c12 [Cmpd 4] | increase gene transfer efficiency | < 100 | – | – | –
CN(CCCNC(=O)CNC(=O)CNC(=O)CN)CCCNc1nc(Cc2ccccc2)nc2[nH]c3cc(-c4nnn(C)n4)ccc3c12 [Cmpd 5, 2-amino-N-(2-((2-((3-((3-((2-benzyl-7-(2-methyl-2H-tetrazol-5-yl)-9H-pyrimido[4,5-b]indol-4-yl)amino)propyl)(methyl)amino)propyl)amino)-2-oxoethyl)amino)-2-oxoethyl)acetamide] | increase gene transfer efficiency | 250 to 500 | – | – | –
COC(=O)c1ccc2c(c1)[nH]c1nc(Cc3ccccc3)nc(SCCCN3CCCCC3)c12 [Cmpd 6, methyl 2-benzyl-4-((3-(piperidin-1-yl)propyl)thio)-9H-pyrimido[4,5-b]indole-7-carboxylate] | increase gene transfer efficiency | 250 to 500 | – | – | –
CCCOC(=O)c1ccc2c(c1)[nH]c1ncnc(NCCCN3CCCCC3)c12 [Cmpd 7, propyl 4-((3-(piperidin-1-yl)propyl)amino)-9H-pyrimido[4,5-b]indole-7-carboxylate] | not observed | > 1000 | – | – | –
COC(=O)c1ccc2c(c1)[nH]c1nc(-c3ccccc3)nc(NCCCN3CCCCC3)c12 [Cmpd 8, methyl 2-phenyl-4-((3-(piperidin-1-yl)propyl)amino)-9H-pyrimido[4,5-b]indole-7-carboxylate 2,2,2-trifluoroacetate] | not observed | – | inactive | – | –
COC(=O)c1ccc2c(c1)[nH]c1cc(Cc3ccsc3)nc(N[C@H]3CC[C@H](N)CC3)c12 [Cmpd 88] | – | 100 to 250 | – | – | –
COC(=O)c1ccc2c(c1)[nH]c1cc(Cc3ccsc3)nc(NCCN(C)CCN)c12 [Cmpd 89] | – | 250 to 500 | – | – | –
CC(C)n1cnc2c(NCCc3ccc(O)cc3)nc(-c3csc4ccccc34)nc21 [SR1, StemRegenin 1, reference compound] | – | – | – | not obtained | not observed

— patent US10273503B2, “Compounds and methods for enhancing viral gene transfer to human hematopoietic cells” (UNIVERSTÉ DE MONTRÉAL, priority 2015, dated 2019)
